Results from the NIST ThermoML archive (doi:10.1016/j.tca.2011.11.009).

Conditions: Liquid, Vibrating tube method

CCCC[n+]1ccc(C)cc1.N#C[S-] [1-butyl-4-methylpyridinium thiocyanate]
mass density [kg/m3]
Conditions	298.15 K	308.15 K	318.15 K	328.15 K	338.15 K
100 kPa	1061.57	1055.36	1049.83	1044.2	1037.12
200 kPa	1061.61	1055.39	1049.88	1044.23	1037.15
300 kPa	1061.64	1055.43	1049.93	1044.29	1037.18
400 kPa	1061.66	1055.48	1049.96	1044.33	1037.18
500 kPa	1061.7	1055.53	1050.03	1044.34	1037.24
600 kPa	1061.74	1055.59	1050.06	1044.41	1037.29
800 kPa	1061.81	1055.69	1050.13	1044.45	1037.35
1000 kPa	1061.88	1055.77	1050.2	1044.55	1037.43
2000 kPa	1062.24	1056.11	1050.6	1044.93	1037.83
4000 kPa	1062.95	1056.86	1051.37	1045.71	1038.61
6000 kPa	1063.68	1057.62	1052.12	1046.49	1039.4
8000 kPa	1064.4	1058.35	1052.88	1047.26	1040.18
10000 kPa	1065.1	1059.08	1053.61	1048.01	1040.98
